Patent US10350152B2, “Skin whitening composition, and method for screening for materials having skin whitening effect” (AMOREPACIFIC CORPORATION, priority 2015, dated 2019)

Assays:
melanocytes = test: Viability of melanocytes cultured with exosomes (crystal violet cytotoxicity test); type: cell-based, human; conditions: exosomes from melanocytes treated with ultraviolet rays together with inhibitor; recipient melanocytes irradiated with UVB 20 mJ/cm^2, cultured 3 days
Experimental: Normal human melanocytes (Cascade Biologics, Portland, Oreg., USA) were kept in M-254 medium (Cascade) containing a human melanocyte growth supplement (Cascade). GW4869 (Santa Cruz Biotechnology, Santa Cruz, Calif., USA) and pifithrin-μ (Sigma, St. Louis, Mo., USA) were dissolved in DMSO for use. Melanocytes were seeded in a 6-well plate at a density of 1×10^4 cells/well. The next day, 10 μl of exosomes isolated from the same number of cells were treated. Cells were fixed with 4% formaldehyde in PBS for 15 minutes, washed with PBS and stained with 0.1% crystal violet for 20 minutes. After washing with PBS, the cells were dried and lysed with 10% acetic acid. The absorbance was measured at 590 nm using a spectrophotometer. Each of the exosomes obtained from UVB-untreated melanocytes, UVB-treated melanocytes, or UVB- and GW4869-treated melanocytes, together with melanocytes, were irradiated with UVB (20 mJ/cm^2), and cultured for 3 days.

Normal human melanocytes = test: Amount of secretion of exosomes from UVB-irradiated melanocytes (exosome marker CD81, western blot); type: cell-based; conditions: 10 μM, treated for 12 hours before UVB exposure (20 mJ/cm^2), cultured 24 hours
Experimental: Normal human melanocytes (Cascade Biologics, Portland, Oreg., USA) were kept in M-254 medium (Cascade) containing a human melanocyte growth supplement (Cascade). GW4869 (Santa Cruz Biotechnology, Santa Cruz, Calif., USA) and pifithrin-μ (Sigma, St. Louis, Mo., USA) were dissolved in DMSO for use. For isolation of exosomes, confluent melanocytes were washed with PBS and cultured in M-254 for 48 hours. Conditioned medium was collected and centrifuged at 500×g for 10 minutes, 3,000×g for 20 minutes, and 100,000×g for 2 hours. The resultant exosome-containing pellet was resuspended in PBS and stored at −80° C. Also, conditioned medium was purified by filtration through a 0.45 μm pore filter (Millipore, Billerica, Mass., USA) and concentrated using a 100 kDa cut-off spin column (Millipore). Exosomes were isolated using the ExoQuick-TC kit (SBI, San Jose, Calif., USA) according to the manufacturer's instructions. 20 μl of isolated exosomes were analyzed by western blot and silver staining. Cells or isolated exosomes were lysed with lysis buffer (1% NP-40, 0.05 M Tris-HCl, pH 7.5, 0.15 M NaCl, and 0.01 M MgCl2) containing protease inhibitors (Sigma). Protein concentrations were determined using BCA assays, and samples were […] by SDS-PAGE, transferred to a PVDF membrane, and probed with antibodies against CD81 (SBI). […]

SMILES	effect of exosomes from UVB- and inhibitor-treated melanocytes on viability of ultraviolet-irradiated melanocytes (melanocytes)	amount of expression of the exosome marker CD81 (Normal human melanocytes)
Cl.Cl.O=C(/C=C/c1ccc(/C=C/C(=O)Nc2ccc(C3=NCCN3)cc2)cc1)Nc1ccc(C2=NCCN2)cc1 [GW4869]	reduced effect in the enhancement of the viability of melanocytes	decreased
NS(=O)(=O)C#Cc1ccccc1 [pifithrin-μ]	reduced effect in the enhancement of the viability of melanocytes	decreased
